The values that follow come from EP0385712B1, “A peptide for use in the manufacture of a composition for prevention or treatment of a condition susceptible to treatment with a platelet aggregation inhibition agent” (ASAHI KASEI KOGYO KABUSHIKI KAISHA, priority 1989, dated 1994).

The subject of the series is rat, Wister strain. The series can be described thus: Acute toxicity in rat, intravenous. The class given is in vivo. Particulars: body weight 80 - 90 g, 80 µg/kg intravenously in the tail, solution in 0.1 M aqueous sodium acetate containing 0.1 % bovine serum albumin. As for the experimental part:
A solution of each of the following compounds in 0.1 M aqueous sodium acetate containing 0.1 % bovine serum albumin is administered into a rat, Wister strain, body weight 80 - 90 g, 80 µg/kg, intraveneously in the tail.

Consider desalanyl- [Asu^2,⁷] - c-CGRP, for which the “Acute toxicity (deaths)” value was “No deaths were observed”.
With “desalanyl-deamino- [Asn³, Asp¹⁴, Gly²³] -h -α-CGRP” the entry was “No deaths were observed”; with “desalanyl-deamino- [Asn³, Asp¹⁴, Phe¹⁵] -h -α-CGRP”, “No deaths were observed”.
“desalanyl-deamino- [Asn³, Glu¹⁴, Gly²³] -h -α-CGRP”: the “Acute toxicity (deaths)” value is listed as “No deaths were observed”.
“desalanyl-deamino- [Asn³, Glu¹⁴, Phe¹⁵] -h -α-CGRP”: the “Acute toxicity (deaths)” value is reported as “No deaths were observed”.
With “desalanyl-deamino- [Asn³, Phe¹⁵, Gly²³] -h -α-CGRP” the entry was “No deaths were observed”; with desalanyl-deamino- [Asp¹⁴ ] -h -α-CGRP, “No deaths were observed”.
desalanyl-deamino- [Glu¹⁴ ] -h -α-CGRP: the “Acute toxicity (deaths)” value is “No deaths were observed”.
With desalanyl-deamino-c-CGRP the entry was “No deaths were observed”; with desalanyl-deamino-h-α-CGRP, “No deaths were observed”; with desalanyl-deamino-h-β-CGRP, “No deaths were observed”.
With h - β- CGRP the entry was “No deaths were observed”; with p - CGRP, “No deaths were observed”.
On to r - α - CGRP, for which the “Acute toxicity (deaths)” value is on record as “No deaths were observed”.
For the substance r - β- CGRP, the “Acute toxicity (deaths)” value is “No deaths were observed”.
